Data as given in patent US7589186B2, “Isolated hOAT polynucleotide” (priority 1998, dated 2009).

Legend:
hOAT = hOAT (Homo sapiens, UniProt Q4U2R8); test: Uptake of antiviral nucleotides (ADV, CDV, cCDV) in CHO-hOAT versus CHO cells; conditions: for accumulation in CHO-hOAT (in words) / Vmax of uptake by CHO-hOAT: CHO-hOAT cells
Experimental: pIRES-hOAT plasmid was transfected into CHO-K1 cells (ATCC CCL61) growing in F-12 nutrient mixture supplemented with 10% fetal bovine serum, 100 U/ml penicillin, and 100 μg/ml streptomycin. 24 hours before transfection, approximately 6×10^6 CHO-K1 cells were seeded into 100-mm Petri dish. At the time of transfection, media was aspirated and 6 ml of fresh media containing 12 μg of pIRES-hOAT and 60 μg of Cytofectin GSV cationic lipid (Glen Research, Sterling, Va.) was added to the cells. Following overnight incubation, selection of stable transformants started in phenol red-free F-12 nutrient mixture containing fetal bovine serum, penicillin and streptomycin as above, plus 1 mg/ml G418 (CLONTECH). […] For the PAH uptake assay, the cells were seeded into 12-well plates at the density of 2×10^5 cell/well. After 48 hours, growth media was aspirated and the cells were washed twice with phosphate buffered saline (PBS). […] After 90 min incubation at 37° C. in the transport buffer, the cells were washed 3-times with ice-cold PBS (2 ml/well) and lysed directly on the plate in the presence of 0.3% Triton X-100 (0.5 ml/well) for 20 min at room temperature. Plates were washed with additional 0.5 ml/well of Triton X-100, the lysate and wash were combined, scintillation fluid was added, and the radioactivity counted.
(§1) Uptake and cytotoxicity of ADV in the two cell lines was compared.

CHO-hOAT cells = test: Cytotoxicity in CHO-hOAT compared to CHO cells; type: cell-based, Chinese hamster; conditions: for fold more cytotoxic in CHO-hOAT compared to CHO cells: without probenecid
From the text: as §1

[1] = substrate: Nc1ncnc2c1ncn2CCOCP(=O)(O)O; test: cells, lysate or membranes; conditions: other: CHO-hOAT cells; pH 7.2; 37.0 °C
Experimental: (§2) pIRES-hOAT plasmid was transfected into CHO-K1 cells (ATCC CCL61) growing in F-12 nutrient mixture supplemented with 10% fetal bovine serum, 100 U/ml penicillin, and 100 μg/ml streptomycin. 24 hours before transfection, approximately 6×10^6 CHO-K1 cells were seeded into 100-mm Petri dish. At the time of transfection, media was aspirated and 6 ml of fresh media containing 12 μg of pIRES-hOAT and 60 μg of Cytofectin GSV cationic lipid (Glen Research, Sterling, Va.) was added to the cells. Following overnight incubation, selection of stable transformants started in phenol red-free F-12 nutrient mixture containing fetal bovine serum, penicillin and streptomycin as above, plus 1 mg/ml G418 (CLONTECH). […] For the PAH uptake assay, the cells were seeded into 12-well plates at the density of 2×10^5 cell/well. After 48 hours, growth media was aspirated and the cells were washed twice with phosphate buffered saline (PBS). […] Plates were washed with additional 0.5 ml/well of Triton X-100, the lysate and wash were combined, scintillation fluid was added, and the radioactivity counted.

[2] = substrate: Nc1ccn(C[C@@H](CO)OCP(=O)(O)O)c(=O)n1; test: cells, lysate or membranes; conditions: other: CHO-hOAT cells; pH 7.2; 37.0 °C
Experimental: as §2

| Molecule | accumulation in CHO-hOAT (in words) (hOAT) | Vmax of uptake by CHO-hOAT (hOAT) | fold more cytotoxic in CHO-hOAT compared to CHO cells (CHO-hOAT cells) | further results |
| --- | --- | --- | --- | --- |
| Nc1ccn(C[C@H]2COP(=O)(O)CO2)c(=O)n1 [cCDV] | not | – | – | increase of cytotoxicity in CHO-hOAT cells (in words) (CHO-hOAT cells): increased to much lesser extent |
| Nc1ncnc2c1ncn2CCOCP(=O)(O)O [ADV, Adefovir] | – | 390 pmol/10^6 cells | ~500 fold | accumulation in CHO-hOAT compared to CHO (hOAT; CHO-hOAT vs CHO cells): > 300 fold; fold more susceptible CHO-hOAT than CHO in the presence of PBC (CHO-hOAT cells; in the presence of 1 mM PBC): 3 fold |
| Nc1ccn(C[C@@H](CO)OCP(=O)(O)O)c(=O)n1 [CDV, cidofovir] | efficiently accumulated | 1,110 pmol/10^6 cells | > 400 fold | effect of PBC on cytotoxicity (in words) (CHO-hOAT cells; CHO-hOAT cells, with PBC): significantly reduced by PBC |
| hOAT (Homo sapiens) (protein) MAFNDLLQQVGGVGRFQQIQVTLVVLPLLLMASHNTLQNFTAAIPTHHCRPPADANLSKNGGLEVWLPRDRQGQPESCLRFTSPQWGLPFLNGTEANGTGATEPCTDGWIYDNSTFPSTIVTEWDLVCSHRALRQLAQSLYMVGVLLGAMVFGYLADRLGRRKVLILNYLQTAVSGTCAAFAPNFPIYCAFRLLSGMALAGISLNCMTLNVEWMPIHTRACVGTLIGYVYSLGQFLLAGVAYAVPHWRHLQLLVSAPFFAFFIYSWFFIESARWHSSSGRLDLTLRALQRVARINGKREEGAKLSMEVLRASLQKELTMGKGQASAMELLRCPTLRHLFLCLSMLWFATSFAYYGLVMDLQGFGVSIYLIQVIFGAVDLPAKLVGFLVINSLGRRPAQMAALLLAGICILLNGVIPQDQSIVRTSLAVLGKGCLAASFNCIFLYTGELYPTMIRQTGMGMGSTMARVGSIVSPLVSMTAELYPSMPLFIYGAVPVAASAVTVLLPETLGQPLPDTVQDLESRKGKQTRQQQEHQKYMVPLQASAQEKNGL | – | – | – | Km [1]: 23 µM; Km [2]: 70 µM |
